{"source": "patent US20230159620A1", "about": "“COMPOSITIONS AND METHODS OF TREATMENT FOR VASCULAR DISEASES AND THROMBOSIS” (Washington University, priority 2021, published 2023)", "key": {"AKT": {"system": "AKT", "assay": "AKT signaling immunoblot, platelets", "format": "cell-based, human", "conditions": "platelets, vs BSA", "description": "Prior to performing signaling assays, cells were trypsinized, centrifuged, suspended in basal media, and counted using an automated hemocytometer. Cells were further diluted in basal media to an assay-dependent concentration. Cells were then incubated with gentle agitation for 60 minutes to prevent cell attachment and reduce basal signaling. PP1, Dynasore, MK-2206, and Rapamycin were diluted in DMSO and used in assay concentrations of 10 μM, 100 μM, 10 μM, and respectively, for the final 20-30 minutes of incubation in basal media. An equal volume of DMSO was used as the negative control condition. […] 1 μg Pearl 1 polyclonal antibody was added as a specific positive control. 20% growth media or 2% fetal bovine serum, labeled “Serum” in figures, was added as a non-specific positive control. The cells were centrifuged at 300G for 3 minutes with the exception of platelets, which were centrifuged at 500G for 5 minutes. The cells were then incubated at 37° C. for 8-45 minutes, depending on the cell type and pathway of interest. The cells were lysed in radioimmunoprecipitation buffer (RIPA) containing a cocktail of protease and phosphatase inhibitors and universal nuclease. Immunoblots were performed by standard techniques, as briefly follows. Protein content was determined using a bicinchoninic acid assay with BSA standards (#23225, Pierce BCA Protein Assay Kit). Cell lysates were then reduced with dithiothreitol (DTT) in lithium dodecyl sulfate (LDS) sample buffer (#NP0007, Invitrogen). Equal protein amounts were added to polyacrylamide gels (#4561086, BioRad) and electrophoresed prior to transferring to a nitrocellulose or polyvinylidene fluoride membrane (#1620260, BioRad). Membranes were blocked in 5% BSA/Tris-buffered saline (TBS) with 0.1% Tween 20 for 30 minutes. The indicated primary antibodies were incubated with the pre-blocked membranes overnight at 4° C. Membranes were washed with TBS with 0.1% Tween 20, probed with fluorescent secondary antibodies, and imaged. β-actin or β-tubulin served as a loading control.\nWhole blood was collected by venipuncture into either heparin vacutainers (BD, Franklin Lakes) for whole blood experiments or acid-citrate-dextrose (ACD) vacutainers (BD, Franklin Lakes) for platelet isolation studies. For platelet isolation, samples were supplemented with apyrase (Sigma, St Louis) and prostaglandin E1 (Cayman Chemical, Ann Arbor), and platelet-rich plasma (PRP) was prepared by centrifugation of the ACD whole blood for 20 minutes at 200G. Platelets were isolated from the PRP by centrifugation for 10 minutes at 1000G and resuspended in modified Tyrode's buffer twice at desired platelet counts and kept at 37° C. until used. Isolated platelets were used within 2 hours of preparation."}, "platelets": {"system": "platelets", "description": "Complete blood counts (CBC) and washed platelet counts were determined using a hematology analyzer Element HT5 (Heska, Loveland). […] For flow cytometry, diluted whole blood or isolated platelets were pre-incubated with their respective fluorescent antibodies for 15 minutes and fixed. For murine whole blood: CD41-VioBlue, CD61-PE (Mitlenyi Biotec, Bergisch Gladbach, Germany), CD42b-DL649, GPVI-FITC (Emfret, Eibelstadt, Germany) and for human whole blood and isolated platelets: CD41-FITC, CD61-APC, CD42b-PE (Biolegend, San Diego), GPVI-BV421 617 (BD, Franklin Lakes). Platelet surface receptor levels were quantified by flow cytometry on a 618 CytoFlex analyzer.\nSamples were immediately fixed and run using a CytoFlex analyzer (Beckman Coulter, Pasadena) and analysis was performed with Kaluza software (Beckman Coulter, Pasadena)."}, "Notch": {"system": "Notch", "conditions": "4 hours on SVEP1 vs BSA", "description": "Cells were collected, resuspended in SFM, and incubated for 1 hr with gentle agitation before seeding on tissue culture wells that were precoated and blocked, as described in previous sections. Cells were collected for analysis after 4 hr of growth on the indicated substrate. Svep1SMC+/+ and Svep1SMCΔ/Δ VSMCs were collected for analysis after 72 hr of incubation in SFM to obtain basal Notch signaling."}, "FGF receptors": {"system": "FGF receptors", "assay": "Bulk RNA sequencing of VSMCs, Fgfr transcripts", "format": "cell-based, mouse", "conditions": "RNAseq, normalized to BSA", "description": "Plates were UV sterilized before adding cells. Primary VSMCs were collected, resuspended in DMEM/F12 media containing 10% FBS, plated on precoated, blocked wells, and incubated for 8 hr to ensure complete cell adhesion. Media was replaced with fresh DMEM/F12 containing 1% FBS and incubated for 12 hr before collection. RNA was collected using RNeasy® Mini Kit (#74106, Qiagen). Atherosclerotic aortic arches (including the aortic root, arch, and the proximal regions of its branching vessels) from mice were used as the source of RNA for the later RNAseq experiment. […]\nSamples were prepared according to the library kit manufacturer's protocol, indexed, pooled, and sequenced on an Illumina HiSeq. Basecalls and demultiplexing were performed with Illumina's bcl2fastq software and a custom python demultiplexing program with a maximum of one mismatch in the indexing read. RNA-seq reads were then aligned to the Ensembl release 76 primary assembly with STAR version 2.5.1a. Gene counts were derived from the number of uniquely aligned unambiguous reads by Subread:featureCount version 1.4.6-p5 2). […] Sequencing performance was assessed for the total number of aligned reads, the total number of uniquely aligned reads, and the features detected. The ribosomal fraction, known junction saturation, and read distribution over known gene models were quantified with RSeQC version 2.6.2. […]"}, "Human platelets": {"system": "Human platelets", "conditions": "static conditions, with and without 0.1 U/mL thrombin", "quoted_text": "Subsequently, coverslips were blocked with 1% BSA and washed with PBS. Human platelets were isolated from whole blood and re-suspended in Tyrode's buffer. 2×10^7/mL basal or thrombin activated platelets were added to coverslips and incubated at 37° C. for 10, 20, or 30 minutes. After incubation, non-adherent platelets were removed and the coverslips were washed with PBS, fixed with 1.5% paraformaldehyde, permeabilized with 0.01% Triton-X and stained with TRITC phalloidin. Platelets were visualized using fluorescent microscopy. Images of the adhered platelets were captured using fluorescent microscopy and counted manually by a blinded observer."}}, "data": [{"substance": "SVEP1: recombinant murine SVEP1 extracellular matrix protein with Myc and poly-histidine tag, expressed in 293F cells", "values": [{"measurement": "AKT phosphorylation (pAKT)", "setting": "AKT", "result": "induced AKT phosphorylation"}, {"measurement": "platelet receptor density", "setting": "platelets; freshly isolated human platelets, soluble SVEP1", "result": "lower levels of receptor CD42b and CD61"}, {"measurement": "integrin aIIbβ3 activation (active CD41/61)", "setting": "platelets; isolated human platelets, basal and with ADP, TRAP6", "result": "increased"}, {"measurement": "P-selectin expression", "setting": "platelets; isolated human platelets, with ADP, TRAP6", "result": "increased"}, {"measurement": "expression of canonical Notch targets Hey2 and Hes 1", "setting": "Notch", "result": "significantly increased expression"}, {"measurement": "expression of FGF receptors", "setting": "FGF receptors", "result": "increases expression of FGF receptors"}, {"measurement": "adherence of platelets to coated coverslips", "setting": "Human platelets", "result": "adhered"}]}]}
